Patent US20200245667A1, “OLIGOSACCHARIDE COMPOSITIONS AND THEIR USE DURING TRANSITIONAL PHASES OF THE MAMMALIAN GUT MICROBIOME” (EVOLVE BIOSYSTEMS, INC., priority 2017, published 2020)

Columns and labels:
L. reuteri = details: Rattanaprasert et al. 2014; cited from earlier work
B. bifidum = test: free sugar consumption by intestinal microbiota; format: cell-based; set-up: key: *: predicted, but not observed; ND: Not Determined; details: predicted, but not observed
Description: (§1) A number of bacterial species are provided in Table 2, since the inventors have discovered preferred carbon source(s) for certain bacteria. Certain embodiments of the invention described herein would include one or more of any of the species found in Table 2.

B. breve = test: free sugar consumption by intestinal microbiota; format: cell-based; set-up: key: *: predicted, but not observed; ND: Not Determined; details: predicted, but not observed
Description: as §1

B. infantis = test: free sugar consumption by intestinal microbiota; format: cell-based; set-up: key: *: predicted, but not observed; ND: Not Determined; details: predicted, but not observed
Description: as §1

B. longum = test: free sugar consumption by intestinal microbiota; format: cell-based; set-up: key: *: predicted, but not observed; ND: Not Determined; details: predicted, but not observed
Description: as §1

In the case of `O=C[C@@H](O)[C@H](O)[C@H](O)CO` [Arabinose], the “growth of Lactobacillus reuteri on the sugar” value (L. reuteri) is given as “known to grow on arabinose”.

With `C[C@H](O)[C@@H](O)[C@@H](O)[C@H](O)C=O` [Fucose] the “preferences for free sugar consumption” value (B. bifidum) was “*”, the “preferences for free sugar consumption” value (B. breve) was “*” and the “preferences for free sugar consumption” value (B. infantis) was “*”. For the same molecule, the “preferences for free sugar consumption” value (B. longum) was “*”.

In the case of `C[C@H](O)[C@H](O)[C@@H](O)[C@@H](O)C=O` [Rhamnose], the “growth of Lactobacillus reuteri on the sugar” value (L. reuteri) is listed as “utilize rhamnose as a terminal electron acceptor to improve its growth”.
